Here are results for seven compounds from patent publication US8927571B2, “Pyrido[4,3-B]indoles and methods of use” (Medivation Technologies, Inc., priority 2009, dated 2015).

For assay [1], the target named is T1, human recombinant serotonin (5-Hydroxytryptamine) 5-HT6 receptor (Homo sapiens, UniProt P50406).
T1 construct: expressed in transfected cells; host or cells: human HeLa cells
Briefly: Serotonin 5-HT6 radioligand binding assay ([3H]LSD). Conditions: 1.5 nM [3H]LSD, read-out: Percent Inhibition of ligand binding, Serotonin (1 μM) 5-HT6. The protocol: Compounds of the invention were incubated with 1.5 nM [3H]Lysergic acid diethylamide (LSD) for 120 min at 37° C. […] Receptor proteins were filtered and washed, the filters were then counted to determine [3H]LSD specifically bound. Compounds were screened at 1 μM or lower, using 1% DMSO as vehicle. Biochemical assay results are presented as the percent inhibition of specific binding in Table 4.

The target of assay [2] is human recombinant dopamine D2L receptor (Homo sapiens, UniProt P14416). The assay is described as follows: Dopamine D2L radioligand binding assay ([3H]Spiperone). The settings on record: for inhibition at 1 µM: read-out: Percent Inhibition of ligand binding, Dopamine (1 μM) D2L. The method, then:
Compounds of the invention were incubated with 0.16 nM [^3H]Spiperone for 120 min at 25° C. Non-specific binding was estimated in the presence of 10 μM Haloperidol. Receptor proteins were filtered and washed, the filters were then counted to determine [^3H]Spiperone specifically bound. Compounds were screened at 1 μM or lower, using 1% DMSO as vehicle. Biochemical assay results are presented as the percent inhibition of specific binding in Table 3.

The target of assay [3] is T2, human recombinant serotonin (5-Hydroxytryptamine) 5-HT2A receptor (Homo sapiens, UniProt P28223).
T2 construct: expressed in transfected cells; host or cells: Chinese hamster ovary (CHO-K1) cells
T2 sequence (P28223 whole entry): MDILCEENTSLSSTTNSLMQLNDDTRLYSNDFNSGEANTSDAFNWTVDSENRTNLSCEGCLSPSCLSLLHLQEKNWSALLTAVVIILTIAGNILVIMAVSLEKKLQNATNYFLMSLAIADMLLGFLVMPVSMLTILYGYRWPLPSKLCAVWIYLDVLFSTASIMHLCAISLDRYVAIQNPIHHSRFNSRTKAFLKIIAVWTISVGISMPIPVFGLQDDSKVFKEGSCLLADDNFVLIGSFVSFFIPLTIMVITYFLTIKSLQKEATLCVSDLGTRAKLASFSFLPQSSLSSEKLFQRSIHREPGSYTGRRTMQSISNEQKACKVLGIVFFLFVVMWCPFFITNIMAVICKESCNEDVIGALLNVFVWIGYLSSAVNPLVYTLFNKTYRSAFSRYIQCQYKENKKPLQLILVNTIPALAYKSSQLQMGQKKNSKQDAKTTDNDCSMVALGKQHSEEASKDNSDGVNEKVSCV
Briefly: Serotonin 5-HT2A radioligand binding assay ([3H]Ketanserin). Conditions: 0.5 nM [3H]Ketanserin, read-out: Percent Inhibition of ligand binding, Serotonin (1 μM) 5-HT2A. The method, then: Compounds of the invention were incubated with 0.5 nM [^3H]Ketanserin for 60 min at 25° C. Non-specific binding was estimated in the presence of 1 μM Mianserin. Receptor proteins were filtered and washed, the filters were then counted to determine [^3H]Ketanserin specifically bound. Compounds were screened at 1 μM or lower, using 1% DMSO as vehicle. Biochemical assay results are presented as the percent inhibition of specific binding in Table 4.

Assay [4] has as its target T3, human recombinant serotonin (5-Hydroxytryptamine) 5-HT2C receptor (Homo sapiens, UniProt P28335).
T3 construct: expressed in transfected cells; host or cells: Chinese hamster ovary (CHO-K1) cells
T3 sequence (P28335 33-458): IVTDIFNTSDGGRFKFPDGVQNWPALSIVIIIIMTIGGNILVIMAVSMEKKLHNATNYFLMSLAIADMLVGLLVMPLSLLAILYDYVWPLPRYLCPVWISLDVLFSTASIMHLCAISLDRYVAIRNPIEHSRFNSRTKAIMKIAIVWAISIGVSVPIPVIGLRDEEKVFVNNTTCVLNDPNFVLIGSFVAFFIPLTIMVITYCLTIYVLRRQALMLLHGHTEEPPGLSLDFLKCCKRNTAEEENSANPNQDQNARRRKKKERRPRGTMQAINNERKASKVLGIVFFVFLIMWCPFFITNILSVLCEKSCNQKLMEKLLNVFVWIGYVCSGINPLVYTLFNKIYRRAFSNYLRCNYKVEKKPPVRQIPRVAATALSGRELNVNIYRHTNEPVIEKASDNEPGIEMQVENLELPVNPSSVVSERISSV
Briefly: Serotonin 5-HT2C radioligand binding assay ([3H]Mesulergine). Conditions: 1 nM [3H]Mesulergine, read-out: Percent Inhibition of ligand binding, Serotonin (1 μM) 5-HT2C. The protocol:
Compounds of the invention were incubated with 1 nM [^3H]Mesulergine for 60 min at 25° C. Non-specific binding was estimated in the presence of 1 μM Mianserin. Receptor proteins were filtered and washed, the filters were then counted to determine [^3H]Mesulergine specifically bound. Compounds were screened at 1 μM or lower, using 1% DMSO as vehicle. Biochemical assay results are presented as the percent inhibition of specific binding in Table 4.

In assay [5] the target is T4, human recombinant adrenergic α2A receptor (Homo sapiens, UniProt P08913).
T4 construct: expressed in transfected cells; host or cells: insect Sf9 cells
T4 sequence (P08913 1-465): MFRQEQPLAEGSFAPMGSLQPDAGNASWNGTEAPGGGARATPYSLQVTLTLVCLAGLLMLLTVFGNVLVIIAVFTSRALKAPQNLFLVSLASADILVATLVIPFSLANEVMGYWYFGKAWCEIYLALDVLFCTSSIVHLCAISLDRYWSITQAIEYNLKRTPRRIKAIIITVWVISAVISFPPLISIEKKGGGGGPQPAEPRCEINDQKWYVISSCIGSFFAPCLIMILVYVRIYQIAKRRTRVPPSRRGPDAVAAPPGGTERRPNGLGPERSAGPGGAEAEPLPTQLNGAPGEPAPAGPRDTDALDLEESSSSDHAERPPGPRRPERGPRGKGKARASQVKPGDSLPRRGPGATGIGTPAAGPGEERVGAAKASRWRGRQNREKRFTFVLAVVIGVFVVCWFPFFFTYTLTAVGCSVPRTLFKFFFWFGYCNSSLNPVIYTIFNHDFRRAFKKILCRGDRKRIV
The assay is described as follows: Adrenergic α2A radioligand binding assay ([3H]MK-912). The settings on record: 1 nM [3H]MK-912, read-out: Percent Inhibition of ligand binding, Adrenergic (1 μM) α2A. The protocol:
To evaluate in radioligand binding assays the activity of compounds of the invention, human recombinant adrenergic α2A receptor expressed in insect Sf9 cells (Uhlen S et al. J. Pharmacol. Exp. Ther. 271:1558, 1994) in a modified Tris-HCl buffer (50 mM Tris-HCl, pH 7.4, 12.5 mM MgCl2, 2 mM EDTA) was used. Compounds of invention were incubated with 1 nM [^3H]MK-912 for 60 min at 25° C. MK912 is (2S-trans)-1,3,4,5′,6,6′,7,12b-octahydro-1′,3′-dimethyl-spiro[2H-benzofuro[2,3-a]quinolizine-2,4′(1′H)-pyrimidin]-2′(3′H)-one hydrochloride Non-specific binding was estimated in the presence of 10 μM WB-4101 (2-(2,6-dimethoxyphenoxyethyl) aminomethyl-1,4-benzodioxane hydrochloride). Receptor proteins were filtered and washed, the filters were then counted to determine [^3H]MK-912 specifically bound. Compounds were screened at 1 μM or lower, using 1% DMSO as vehicle. Biochemical assay results are presented as the percent inhibition of specific binding in Table 3.

The structures appear in SMILES notation.

T1 sequence (P50406 whole entry): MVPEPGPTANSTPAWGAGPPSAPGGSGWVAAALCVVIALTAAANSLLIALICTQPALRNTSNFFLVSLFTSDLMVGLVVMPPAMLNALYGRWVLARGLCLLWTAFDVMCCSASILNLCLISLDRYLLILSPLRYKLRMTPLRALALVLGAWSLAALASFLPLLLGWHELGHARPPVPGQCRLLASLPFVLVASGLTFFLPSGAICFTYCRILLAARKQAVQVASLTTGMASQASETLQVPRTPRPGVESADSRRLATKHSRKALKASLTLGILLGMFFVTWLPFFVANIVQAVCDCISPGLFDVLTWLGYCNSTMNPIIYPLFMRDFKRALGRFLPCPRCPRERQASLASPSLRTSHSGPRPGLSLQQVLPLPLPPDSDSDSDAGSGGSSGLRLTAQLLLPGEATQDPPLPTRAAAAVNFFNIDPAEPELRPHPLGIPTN
Sequence of human recombinant dopamine D2L receptor (P14416 whole entry): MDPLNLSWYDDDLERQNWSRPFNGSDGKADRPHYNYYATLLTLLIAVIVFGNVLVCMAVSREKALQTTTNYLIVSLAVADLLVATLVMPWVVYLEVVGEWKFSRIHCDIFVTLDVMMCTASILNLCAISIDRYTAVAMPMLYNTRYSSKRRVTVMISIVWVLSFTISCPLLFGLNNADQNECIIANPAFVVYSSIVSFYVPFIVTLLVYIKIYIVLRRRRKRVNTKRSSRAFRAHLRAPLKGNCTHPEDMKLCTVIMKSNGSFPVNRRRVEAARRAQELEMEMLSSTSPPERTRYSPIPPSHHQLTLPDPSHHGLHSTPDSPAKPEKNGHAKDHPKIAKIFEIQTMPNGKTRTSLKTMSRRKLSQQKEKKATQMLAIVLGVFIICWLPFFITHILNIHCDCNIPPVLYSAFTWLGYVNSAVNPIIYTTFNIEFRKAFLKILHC

One may read the inhibition as the relative decrease from the control value, in per cent. As for `Cc1ccc2c(c1)c1c(n2CC2(c3ccccc3)OCCO2)CCN(C)C1` [Compound 2, 2,8-dimethyl-5-((2-phenyl-1,3-dioxolan-2-yl)methyl)-2,3,4,5-tetrahydro-1H-pyrido[4,3-b]indole], the inhibition at 1 µM in assay [1] stood at 102%; in assay [2], 51%; in assay [3], 93%; in assay [4], 96%; in assay [5] it was 91%.

For `Cc1ccc2c(c1)c1c(n2CC2(c3ccc(F)cc3)OCCO2)CCN(C)C1` [Compound 3, 5-((2-(4-fluorophenyl)-1,3-dioxolan-2-yl)methyl)-2,8-dimethyl-2,3,4,5-tetrahydro-1H-pyrido[4,3-b]indole], the inhibition at 1 µM was determined as 103% in assay [1]; 45% in assay [2]; 99% in assay [3]; 93% in assay [4]; 92% in assay [5].

As to `CN1CCc2c(c3cc(Cl)ccc3n2CC2(c3ccc(F)cc3)OCCO2)C1` [Compound 4, 8-chloro-5-((2-(4-fluorophenyl)-1,3-dioxolan-2-yl)methyl)-2-methyl-2,3,4,5-tetrahydro-1H-pyrido[4,3-b]indole], the inhibition at 1 µM in assay [1] was 104%; in assay [2], 58%; in assay [3] it was 99%; in assay [4] it was 101%; in assay [5], 95%.

Consider `CN1CCc2c(c3cc(Cl)ccc3n2CC2(c3ccc(Cl)cc3)OCCO2)C1` [Compound 5, 8-chloro-5-((2-(4-chlorophenyl)-1,3-dioxolan-2-yl)methyl)-2-methyl-2,3,4,5-tetrahydro-1H-pyrido[4,3-b]indole], for which the inhibition at 1 µM stood at 85% in assay [1]; 53% in assay [2]; 99% in assay [3]; 100% in assay [4]; 95% in assay [5].

For the compound `CCOC(=O)CC(Cn1c2c(c3cc(C)ccc31)CN(C)CC2)c1ccc(F)cc1` (stereo not drawn) [Compound 6, ethyl 4-(2,8-dimethyl-3,4-dihydro-1H-pyrido[4,3-b]indol-5(2H)-yl)-3-(4-fluorophenyl)butanoate], the inhibition at 1 µM came to 102% in assay [1]; 24% in assay [2]; 95% in assay [3]; 93% in assay [4]; 95% in assay [5]. The “Percent Inhibition of ligand binding, Dopamine (1 μM) D2L” value in assay [2] is reported as 31%.

For the compound `Cc1ccc2c(c1)c1c(n2CC(CC(=O)O)c2ccc(F)cc2)CCN(C)C1` (stereo not drawn) [Compound 7, 4-(2,8-dimethyl-3,4-dihydro-1H-pyrido[4,3-b]indol-5(2H)-yl)-3-(4-fluorophenyl)butanoic acid], the inhibition at 1 µM in assay [1] is -3%; in assay [2] it was -10%; in assay [3], 9%; in assay [4], 14%; in assay [5] it was 9%.

For `CNC(=O)CC(Cn1c2c(c3cc(C)ccc31)CN(C)CC2)c1ccc(F)cc1` (stereo not drawn) [Compound 8, 4-(2,8-dimethyl-3,4-dihydro-1H-pyrido[4,3-b]indol-5(2H)-yl)-3-(4-fluorophenyl)-N-methylbutanamide], the inhibition at 1 µM was determined as 63% in assay [1]; 14% in assay [2]; 85% in assay [3]; 95% in assay [4]; 63% in assay [5].
